Counter-ions that a name gives are not always drawn.
Tests used:
[1] = Writhing Test on the mouse (analgesic activity); format: in vivo; details: po
From the text: (§1) As already mentioned earlier, the compounds of formula I and their pharmaceutically acceptable acid addition salts have valuable pharmacodynamic properties. In particular, they have interesting analgesic, anti-depressant and acute inflammation-inhibiting properties. […] In the following Table there are given the results determined in these tests for some representative members of the class of compound defined by general formula I. Moreover, the Table contains data concerning the acute toxicity of these compounds (LD50 after single oral administration to mice).

[2] = Acute toxicity, LD50 after single oral administration to mice; details: mouse, in vivo
From the text: as §1

serotonin-uptake = assay: Serotonin-uptake Test (antidepressant activity; M. J. Kuhar et al.); format: biochemical
From the text: as §1

Compound `CN(C)C[C@@H](c1ccc(Cl)c(Cl)c1)[C@@H]1CCCC[C@@H]1O` (relative stereo) [rac-(1S*)-cis-2-/(R*)-3,4-dichloro-α-[(dimethylamino)methyl]benzyl/cyclohexanol hydrochloride] has an ED50 [1] of 9.7 mg/kg, an LD50 [2] of 62.6 to 125 mg/kg and an IC50 (serotonin-uptake) of 0.021 µM.
With `CN(C)C[C@@H](c1ccc(Cl)cc1)[C@@H]1CCCC[C@@H]1O` (relative stereo) [rac-(1S*)-cis-2-/(R*)-4-chloro-α-[(dimethylamino)methyl]benzyl/cyclohexanol hydrochloride] the ED50 [1] was 18 mg/kg, the LD50 [2] was 312 to 625 mg/kg and the IC50 (serotonin-uptake) was 0.088 µM.
Work on `COc1ccc([C@H](CN(C)C)[C@@H]2CCCC[C@@H]2O)cc1` (relative stereo) [rac-(1S*)-cis-2-/(R*)-4-methoxy-α-[(dimethylamino)methyl]benzyl/cyclohexanol hydrochloride] yielded an ED50 [1] of 23 mg/kg, an LD50 [2] of 250 to 500 mg/kg and an IC50 (serotonin-uptake) of 0.12 µM.
With `COc1ccc([C@H](CN(C)C)[C@@H]2CCCC[C@@H]2O)cc1OC` (relative stereo) [rac-(1S*)-cis-2-/(R*)-α-[(dimethylamino)methyl]-3,4-dimethoxybenzyl/cyclohexanol hydrochloride] the ED50 [1] was 10 mg/kg, the LD50 [2] was 500 to 1000 mg/kg and the IC50 (serotonin-uptake) was 0.1 µM.
With `CN(C)C[C@@H](c1ccc(O)cc1)[C@@H]1CCCC[C@@H]1O` (relative stereo) [rac-(1S*)-cis-2-/(R*)-α-[(dimethylamino)methyl]-4-hydroxybenzyl/cyclohexanol] the ED50 [1] was 8.4 mg/kg, the LD50 [2] was 500 to 1000 mg/kg and the IC50 (serotonin-uptake) was 0.18 µM.
Work on `CN(C)C[C@@H](c1ccc(Cl)cc1)[C@@H]1CCCCC1=O` (relative stereo) [rac-(2S*)-2-/(R*)-4-chloro-α-[(dimethylamino)methyl]benzyl/cyclohexanone hydrochloride] yielded an ED50 [1] of 22 mg/kg, an LD50 [2] of 156 to 312 mg/kg and an IC50 (serotonin-uptake) of 0.24 µM.
With `CN(C)C[C@@H](c1ccc(Cl)cc1)[C@@H]1CCCC[C@@H]1O` [(+)-(1S)-cis-2-/(R)-4-chloro-α-[(dimethylamino)methyl]benzyl/cyclohexanol hydrochloride] the ED50 [1] was 14 mg/kg, the LD50 [2] was 125 to 250 mg/kg and the IC50 (serotonin-uptake) was 0.11 µM.
With `CN(C)C[C@H](c1ccc(Cl)cc1)[C@H]1CCCC[C@H]1O` [(-)-(1R)-cis-2-/(S)-4-chloro-α-[(dimethylamino)methyl]benzyl/cyclohexanol hydrochloride] the ED50 [1] was 19 mg/kg, the LD50 [2] was 125 to 250 mg/kg and the IC50 (serotonin-uptake) was 0.055 µM.
